Measured values from ChEMBL document CHEMBL1140186, “Hunter-killer peptide (HKP) for targeted therapy” (2008).
Calls of active or inactive are those of the source. No cut-off for these calls is given here. Bridge positions count the residues as written; N and C are the ends. Square brackets hold non-standard residues; d marks the D form. Peptide text beside a SMILES is read from it.

How the values were obtained:
Mus musculus [1] = assay: Reduction in epididymal fat pad size in sc dosed high fat diet fed mouse after 4 weeks relative to control; type: functional; set-up: scale not given: the % may be the effect or the level left
Mus musculus [2] = assay: Induction of weight loss in sc dosed high fat diet fed mouse after 4 weeks; type: functional
MDA-MB-435 = assay: Antitumor activity against human MDA-MB-435 cells xenografted mouse assessed as survival after 120 days; type: functional
Mus musculus [3] = organism: Mus musculus; assay: Increase in survival of transgenic mouse prostate adenocarcinoma model after 6 to 8 weeks; type: functional, organism-based; details: Prostate gland

## CC(C)C[C@@H](NC(=O)[C@@H](CCCCN)NC(=O)CNC(=O)CNC(=O)[C@@H]1CSSC[C@H](N)C(=O)N[C@@H](CCCCN)C(=O)NCC(=O)NCC(=O)N[C@@H](CCCNC(=N)N)C(=O)N[C@@H](C)C(=O)N[C@@H](CCCCN)C(=O)N[C@@H](CC(=O)O)C(=O)N1)C(=O)N[C@H](C)C(=O)N[C@H](CCCCN)C(=O)N[C@H](CC(C)C)C(=O)N[C@H](C)C(=O)N[C@H](CCCCN)C(=O)N[C@H](CCCCN)C(=O)N[C@H](CC(C)C)C(=O)N[C@H](C)C(=O)N[C@H](CCCCN)C(=O)N[C@H](CC(C)C)C(=O)N[C@H](C)C(=O)N[C@H](CCCCN)C(=O)O (H-CKGGRAKDCGG[dK][dL][dA][dK][dL][dA][dK][dK][dL][dA][dK][dL][dA][dK]-OH; disulfide 1-9)
Mus musculus [1]
  Activity: >70%
Mus musculus [2]
  Activity: 30%

## CC(C)C[C@@H](NC(=O)[C@@H](CCCCN)NC(=O)CNC(=O)CNC(=O)[C@@H]1CSSC[C@H](N)C(=O)N[C@@H](CC(N)=O)C(=O)NCC(=O)N[C@@H](CCCNC(=N)N)C(=O)N1)C(=O)N[C@H](C)C(=O)N[C@H](CCCCN)C(=O)N[C@H](CC(C)C)C(=O)N[C@H](C)C(=O)N[C@H](CCCCN)C(=O)N[C@H](CCCCN)C(=O)N[C@H](CC(C)C)C(=O)N[C@H](C)C(=O)N[C@H](CCCCN)C(=O)N[C@H](CC(C)C)C(=O)N[C@H](C)C(=O)N[C@H](CCCCN)C(=O)O (H-CNGRCGG[dK][dL][dA][dK][dL][dA][dK][dK][dL][dA][dK][dL][dA][dK]-OH; disulfide 1-5)
MDA-MB-435
  Survival: 60%

## CC[C@H](C)[C@H](NC(=O)[C@H](CO)NC(=O)[C@H](CCSC)NC(=O)[C@@H](N)CO)C(=O)N[C@@H](C)C(=O)N[C@@H](CCCNC(=N)N)C(=O)N[C@@H](CC(C)C)C(=O)NCC(=O)NCC(=O)N[C@H](CCCCN)C(=O)N[C@H](CC(C)C)C(=O)N[C@H](C)C(=O)N[C@H](CCCCN)C(=O)N[C@H](CC(C)C)C(=O)N[C@H](C)C(=O)N[C@H](CCCCN)C(=O)N[C@H](CCCCN)C(=O)N[C@H](CC(C)C)C(=O)N[C@H](C)C(=O)N[C@H](CCCCN)C(=O)N[C@H](CC(C)C)C(=O)N[C@H](C)C(=O)N[C@H](CCCCN)C(=O)O (H-SMSIARLGG[dK][dL][dA][dK][dL][dA][dK][dK][dL][dA][dK][dL][dA][dK]-OH)
Mus musculus [3]
  Activity: Active
